Test results taken from patent US6838580B2, “Opioid derivative” (Teikoku Seiyaku Co., Ltd., priority 2002, dated 2005).

What was measured:
μ-opioid receptor = biological target: T1, μ-opioid receptor (Rattus norvegicus, UniProt P33535); experiment: Competitive receptor binding assay, synaptic membrane fraction, [3H]DAGO; details: for Ki: rat brain synaptic membrane, [3H]DAGO, read-out: Affinity of receptor (Ki, nM) μ; for Selectivity δ/μ: ratio Ki δ / Ki μ
T1 construct: synaptic membrane fraction obtained from the rat brain tissue; from tissue; host or cells: Sprague-Dawley rat brain without cerebellum, synaptic membrane (P2) fraction
Experimental: (§1) Regarding the opioid peptide derivatives synthesized in Examples and Reference Examples, the μ- and δ-opioid receptor affinities were obtained by a competitive receptor assay using the synaptic membrane fraction obtained from the rat brain tissue according to the known methods. That is, Sprague-Dawley rats having an average weight of 150-180 g were killed by decapitation, the brain tissue from which cerebellum had been removed was homogenized in 0.32M sucrose and 1 mM HEPES (pH 7.5) containing 50 μg/ml soybean trypsin inhibitor, fractionated and centrifuged to obtain the synaptic membrane fraction (P2 fraction), which was pre-incubated in 50 mM HEPES (pH 7.5) containing 100 mM NaCl, 0.1 mM GDP and soybean trypsin inhibitor to remove endogenous ligands from the P2 fraction.
(§2) A competitive receptor binding assay (Radiolabeled receptor assay: RRA) based on an exchange reaction between a radioactive ligand for the synaptic membrane fraction and a peptide derivative to be tested was performed by using tritium-labeled [^3H]DAGO which is a μ-opioid receptor agonist and tritium-labeled [^3H]DPDPE which has the high δ-opioid receptor selectivity, and incubating an aliquot of the synaptic membrane with the peptide derivative to be tested for a period of time. Upon this, an exchange reaction between a ligand was performed under constant conditions, the radiation remaining in the synaptic membrane fraction was measured, and an amount of the ligand adsorbed onto the synaptic membrane fraction is calculated. By assuming that binding with a receptor occurs in competition between a radioactive ligand and an end ligand, the concentration (IC50) at which the maximum specific binding of the radioactive ligand is 50% inhibited was obtained, from which the affinity constant (Ki) was calculated by a method of Cheng et al. (Biochem. Pharmcol., 22, 3099(1973)).

δ-opioid receptor [1] = biological target: T2, δ-opioid receptor (Rattus norvegicus, UniProt P33533); experiment: Competitive receptor binding assay, synaptic membrane fraction, [3H]DPDPE; details: rat brain synaptic membrane, read-out: Affinity of receptor (Ki, nM) δ
T2 construct: synaptic membrane fraction obtained from the rat brain tissue; from tissue; host or cells: Sprague-Dawley rat brain without cerebellum, synaptic membrane (P2) fraction
Experimental: as §1, §2

δ-opioid receptor [2] = biological target: T3, δ-opioid receptor (Mus musculus, UniProt P32300); experiment: Mouse seminiferous tract (MVD) assay, inhibition of electrically stimulated constriction; assay type: cell-based; details: agonist activity, read-out: MVD (IC50 ± S.E.)
T3 construct: using mouse seminiferous tract in place of guinea pig ileum; from tissue; host or cells: mouse seminiferous tract (vas deferens, MVD), organ bath

SD Male rats [3] = experiment: Analgesic effect, Randoll-Seritto hind limb pressure method, intravenous administration; assay type: in vivo; details: rat, i.v., 5 mg/kg
Experimental: (§3) SD Male rats, weighing 110 to 130 g, were used. One group consisted of five rats. The analgesic effects were examined by a Randoll-Seritto method. […] The threshold was expressed in mm Hg. During the measurement, the upper limit of the pressure applied to a hind limb was 100 mm Hg in order to avoid damage of the tissues.
(§4) 2) When administered intravenously (i.v.), a volume of 2 ml/kg weight was administered to a tail vein and, when administered subcutaneously (s.c.), a volume of 2 ml/kg weight was subcutaneously administered to the back. In the case of intravenous administration, a 1 mg/kg, 3 mg/kg or 10 mg/kg compound of Ex.1 administration group, a 1 mg/kg, 3 mg/kg or 10 mg/kg compound of Ex.4 administration group, a 2 ml/kg physiological saline administration group and a 5 mg/kg morphine hydrochloride administration group were made, respectively. In the case of subcutaneous administration, a 10 mg/kg, 30 mg/kg or 100 mg/kg compound of Ex.1 administration group, a 10 mg/kg, 30 mg/kg or 100 mg/kg compound of Ex.4 administration group, a 2 ml/kg physiological saline administration group and a 5 mg/kg morphine hydrochloride administration group were made, respectively. Observation of the analgesic action was performed 15 minutes, 30 minutes, 1 hour and 2 hours after administration in the case of intravenous administration, 30 minutes, 1 hour, 2 hours and 3 hours after administration in the case of subcutaneous administration, respectively.
(§5) In order to perform a significant difference test between respective administration groups and control groups, and between values at respective times before administration and after administration, a Dunnet multiple comparative test method was used. In the statistical processing for performing a significant difference test between morphine hydrochloride administration groups and control groups, Student t-test was used. For performing a significant difference test between values at respective times before administration and after administration in morphine hydrochloride administration groups, a Dunnet multiple comparative test method was used. A significant level was at 5 or lower % risk rate (two-tailed test).

SD Male rats [4] = experiment: Analgesic effect, Randoll-Seritto hind limb pressure method, subcutaneous administration; assay type: in vivo; details: rat, s.c., 5 mg/kg
Experimental: as §3, §4, §5

SD Male rats [5] = experiment: Analgesic effect, Randoll-Seritto hind limb pressure method, intracerebroventricular administration; assay type: in vivo; details: rat, i.c.v., 3 μg/animal
Source text: as §3
1) When performing intracerebroventricular administration (i.c.v.), a rat was fixed to a brain stereotactic fixing apparatus under slight ether anesthesia, the skin at a head was dissected, and an administration cannula was inserted into a place at a transverse of […] from a bregma position and a depth of 3.5 to 4.0 mm. The administration volume was 10 μl/animal. Observation of the analgesic action was performed before administration, and at 30 minutes, and 1, 2, 3, 4 and 5 hours after administration. Doses of both compounds were 0.1, 1 and 10 μg/animal. Separately, a group to which 5 mg/kg of naltrexone hydrochloride was administered subcutaneously immediately after compound of Ex.1 10 μg/animal i.c.v and a group to which 5 mg/kg of naltrexone hydrochloride was administered subcutaneously immediately after compound of Ex.4 10 μg/animal i.c.v. was made. In addition, as morphine hydrochloride at a dose of 3 μg/animal i.c.v. group was used as a positive control group and a physiological saline 10 μl/animal i.c.v. group as a control group was made, respectively.
as §5

T2 sequence (P33533 whole entry): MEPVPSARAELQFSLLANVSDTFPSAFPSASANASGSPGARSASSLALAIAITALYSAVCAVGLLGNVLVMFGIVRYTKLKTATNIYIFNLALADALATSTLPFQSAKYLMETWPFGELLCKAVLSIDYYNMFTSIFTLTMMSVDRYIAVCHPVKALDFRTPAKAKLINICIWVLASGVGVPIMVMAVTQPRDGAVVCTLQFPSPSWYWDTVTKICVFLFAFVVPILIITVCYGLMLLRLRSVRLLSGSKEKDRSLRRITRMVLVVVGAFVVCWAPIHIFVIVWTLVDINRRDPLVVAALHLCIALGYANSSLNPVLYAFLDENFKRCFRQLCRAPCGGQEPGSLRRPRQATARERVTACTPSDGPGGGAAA
T1 sequence (P33535 whole entry): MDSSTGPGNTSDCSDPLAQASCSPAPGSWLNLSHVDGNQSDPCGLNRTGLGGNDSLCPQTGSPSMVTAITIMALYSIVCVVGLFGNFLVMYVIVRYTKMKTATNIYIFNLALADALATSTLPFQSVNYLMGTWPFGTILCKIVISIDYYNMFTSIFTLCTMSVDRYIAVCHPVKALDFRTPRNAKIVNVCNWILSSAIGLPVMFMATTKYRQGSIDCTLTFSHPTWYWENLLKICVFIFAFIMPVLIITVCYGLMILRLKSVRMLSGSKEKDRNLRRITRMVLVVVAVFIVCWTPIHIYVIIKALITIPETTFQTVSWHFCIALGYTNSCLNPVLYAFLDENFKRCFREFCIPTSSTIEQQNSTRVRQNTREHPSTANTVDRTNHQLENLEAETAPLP
T3 sequence (P32300 whole entry): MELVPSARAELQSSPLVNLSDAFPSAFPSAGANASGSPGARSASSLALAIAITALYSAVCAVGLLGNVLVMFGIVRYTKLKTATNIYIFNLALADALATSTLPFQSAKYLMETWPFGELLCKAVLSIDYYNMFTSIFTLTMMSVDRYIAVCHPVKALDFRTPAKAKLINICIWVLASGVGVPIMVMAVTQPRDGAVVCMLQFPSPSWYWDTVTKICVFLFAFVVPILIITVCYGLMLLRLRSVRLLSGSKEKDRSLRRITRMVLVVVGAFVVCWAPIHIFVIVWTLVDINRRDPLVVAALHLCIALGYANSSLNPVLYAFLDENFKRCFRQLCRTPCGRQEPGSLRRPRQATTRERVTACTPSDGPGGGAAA

SMILES	Ki (μ-opioid receptor) [nM]	Selectivity δ/μ (μ-opioid receptor)	Ki (δ-opioid receptor [1]) [nM]	IC50 (δ-opioid receptor [2]) [nM]	further results
Cc1cc(O)cc(C)c1C[C@H](N)C(=O)NCCCCNC(=O)[C@@H](N)Cc1ccccc1 [Ex.2, 1-Dmt-amino-4-Phe-aminobutane.2HCl]	0.52 ± 0.089	117	61 ± 5.7	> 10000	
Cc1cc(O)cc(C)c1C[C@H](N)C(=O)NCCCCNC(=O)[C@@H](N)Cc1ccc(O)cc1 [Ex.3, 1-(Dmt-amino)-4-Tyr-aminobutane.2HCl]	0.38 ± 0.02	349	133 ± 18	> 10000	
Cc1cc(O)cc(C)c1C[C@H](N)C(=O)NCCNC(=O)[C@@H](N)Cc1c(C)cc(O)cc1C [Ex.5, 1,2-Bis(Dmt-amino)ethane.2TFA]	1.43 ± 0.01	81	116 ± 10.6	> 10000	
Cc1cc(O)cc(C)c1C[C@H](N)C(=O)NCCCCCCCCNC(=O)[C@@H](N)Cc1c(C)cc(O)cc1C [Ex.6, 1,8-Bis(Dmt-amino)octane.2TFA]	0.19 ± 0.024	78	14.8 ± 3	> 10000	
CN1CC[C@]23c4c5ccc(O)c4O[C@H]2[C@@H](O)C=C[C@H]3[C@H]1C5.Cl [Morphine, morphine hydrochloride, reference compound]					Change in escape reaction threshold / analgesic effect, in words (SD Male rats [3]): significant increase in the escape reaction threshold was recognized 15 minutes, 30 minutes and 1 hour after administration; Threshold (mmHg) (SD Male rats [3]; 0.25 hr): 83 ± 6^##,$$ mmHg; Threshold (mmHg) (SD Male rats [3]; 0.5 hr): 79 ± 7^##,$$ mmHg; Threshold (mmHg) (SD Male rats [3]; 1 hr): 78 ± 6^##,$$ mmHg; Threshold (mmHg) (SD Male rats [3]; 2 hr): 65 ± 7 mmHg; Threshold (mmHg) (SD Male rats [3]; before administration): 49 ± 2 mmHg; Change in escape reaction threshold / analgesic effect, in words (SD Male rats [4]): significant increase was recognized 30 minutes, 1 hour and 2 hours after administration; Threshold (mmHg) (SD Male rats [4]; 0.5 hr): 87 ± 2^##,$$ mmHg; Threshold (mmHg) (SD Male rats [4]; 1 hr): 85 ± 6^##,$$ mmHg; Threshold (mmHg) (SD Male rats [4]; 2 hr): 71 ± 7^#,$ mmHg; Threshold (mmHg) (SD Male rats [4]; 3 hr): 61 ± 7 mmHg; Threshold (mmHg) (SD Male rats [4]; before administration): 48 ± 2 mmHg; Change in escape reaction threshold / analgesic effect, in words (SD Male rats [5]): significant increase in the threshold was recognized 30 minutes, 1 hour and 3 hours after administration; Threshold (mmHg) (SD Male rats [5]; 0.5 hr): 59 ± 4 mmHg; Threshold (mmHg) (SD Male rats [5]; 1 hr): 59 ± 3 mmHg; Threshold (mmHg) (SD Male rats [5]; 2 hr): 52 ± 3 mmHg; Threshold (mmHg) (SD Male rats [5]; 3 hr): 52 ± 3 mmHg; Threshold (mmHg) (SD Male rats [5]; 4 hr): 49 ± 2 mmHg; Threshold (mmHg) (SD Male rats [5]; 5 hr): 51 ± 2 mmHg; Threshold (mmHg) (SD Male rats [5]; before administration): 46 ± 1 mmHg
N[C@@H](Cc1ccccc1)C(=O)NCCCCNC(=O)[C@@H](N)Cc1ccccc1 [Ref.ex.1, 1,4-Bis(Phe-amino)butane.2HCl, reference compound]	1530	30	46200		
N[C@@H](Cc1ccc(O)cc1)C(=O)NCCCCNC(=O)[C@@H](N)Cc1ccc(O)cc1 [Ref.ex.2, 1,4-Bis(Tyr-amino)butane.2HCl, reference compound]	309 ± 104	21	6500		
N[C@@H](Cc1ccc(O)cc1)C(=O)NCCCCCCNC(=O)[C@@H](N)Cc1ccc(O)cc1.O=C(O)C(F)(F)F.O=C(O)C(F)(F)F [Ref.ex.3, 1,6-Bis(Tyr-amino)hexane.2TFA, reference compound]	410 ± 85	53	21900		
N[C@@H](Cc1ccc(O)cc1)C(=O)NCCNC(=O)[C@@H](N)Cc1ccc(O)cc1 [Ref.ex.4, 1,2-Bis(Tyr-amino)ethane.2TFA, reference compound]	648 ± 95	13	8290		
N[C@@H](Cc1ccc(O)cc1)C(=O)NCCCCCCCCNC(=O)[C@@H](N)Cc1ccc(O)cc1 [Ref.ex.5, 1,8-Bis(Tyr-amino)octane.2TFA, reference compound]	399 ± 40.5		6150		
